Ten compounds from ChEMBL document CHEMBL1128431, “Specific sequestering agents for the actinides. 28. Synthesis and initial evaluation of multidentate 4-carbamoyl-3-hydroxyl-1-methyl-2(1H)-pyridinone ligands for in vivo plutonium(IV) chelation” (1995) can be followed below.

Experiment [1] deals with Mus musculus. Kind of experiment: % Pu(IV) retained after 24 hr in whole body of mice under the effect of 30uM/kg(po, gastric intubation) of ligand administered 3 min after iv injection of Pu(IV) citrate. It is filed as functional.
The test system of experiment [2] is Mus musculus. Kind of experiment: %Pu(IV) excreted after 24 hr in GI contents and feces under the effect of 30uM/kg(po, gastric intubation) of ligand administered 3 min after iv injection of Pu(IV) citrate. It counts as functional.
The test system of experiment [3] is Mus musculus. Kind of experiment: Percent of Pu(IV) excreted after 24 hours in GI contents and feces under the effect of 30 umol/kg (i.p.) of ligand administered 1 hr after iv injection of Pu(IV) citrate. It counts as functional.
Experiment [4] relates to Mus musculus. Kind of experiment: Percent of Pu(IV) excreted after 24 hours in urine under the effect of 30 umol/kg (i.p.) of ligand administered 1 hr after iv injection of Pu(IV) citrate. It is filed as functional.
In experiment [5] the test system is Mus musculus. Kind of experiment: Percent of Pu(IV) retained after 24 hours in kidneys of mice under the effect of 30 umol/kg (i.p.) of ligand administered 1 hr after iv injection of Pu(IV) citrate. It is filed as functional, Kidney.
For experiment [6], the system named is Mus musculus. Kind of experiment: Percent of Pu(IV) retained after 24 hours in liver of mice under the effect of 30 umol/kg (i.p.) of ligand administered 1 hr after iv injection of Pu(IV) citrate. It counts as functional.
Experiment [7] has as its system Mus musculus. Kind of experiment: Percent of Pu(IV) retained after 24 hours in skeleton of mice under the effect of 30 umol/kg (i.p.) of ligand administered 1 hr after iv injection of Pu(IV) citrate. It counts as functional.
Experiment [8] has as its system Mus musculus. Kind of experiment: Percent of Pu(IV) retained after 24 hours in soft tissue of mice under the effect of 30 umol/kg (i.p.) of ligand administered 1 hr after iv injection of Pu(IV) citrate. It counts as functional.
The test system of experiment [9] is Mus musculus. As to the kind of experiment: Percent of Pu(IV) retained after 24 hours in whole body of mice under the effect of 30 umol/kg (i.p.) of ligand administered 1 hr after iv injection of Pu(IV) citrate. It is filed as functional.
Experiment [10] concerns Mus musculus. Kind of experiment: % Pu(IV) retained after 24 hours in liver of mice under the effect of 30uM/kg(po, gastric intubation) of ligand administered 3 min after iv injection of Pu(IV) citrate. It is filed as functional.
Experiment [11] relates to Mus musculus. Kind of experiment: % Pu(IV) excreted at 0-4 hr in urine under the effect of 30uM/kg(po, gastric intubation) of ligand administered 3 min after iv injection of Pu(IV) citrate. It is filed as functional.
The subject of experiment [12] is Mus musculus. As to the kind of experiment: % Pu(IV) retained after 24 hours in kidneys of mice under the effect of 30uM/kg(po, gastric intubation) of ligand administered 3 min after iv injection of Pu(IV) citrate. It is filed as functional, Kidney.
Experiment [13] deals with Mus musculus. As to the kind of experiment: % Pu(IV) retained after 24 hours in skeleton of mice under the effect of 30uM/kg(po, gastric intubation) of ligand administered 3 min after iv injection of Pu(IV) citrate. It counts as functional.
Experiment [14] deals with Mus musculus. As to the kind of experiment: % Pu(IV) retained after 24 hours in soft tissue of mice under the effect of 30uM/kg(po, gastric intubation) of ligand administered 3 min after iv injection of Pu(IV) citrate. It counts as functional.
The subject of experiment [15] is Mus musculus. As to the kind of experiment: % Pu(IV) excreted at 4-24 hr in urine under the effect of 30uM/kg(po, gastric intubation) of ligand administered 3 min after iv injection of Pu(IV) citrate.

Consider `O=C(NCCCN(CCCCN(CCCNC(=O)c1cccc(=O)n1O)C(=O)c1cccc(=O)n1O)C(=O)c1cccc(=O)n1O)c1cccc(=O)n1O`, for which the ID in [1] came out at 24%; in experiment [2], 51%; in [3], 57%; in experiment [4], 25%; in experiment [5], 0.2%; in [6] it was 8.9%. Besides, the ID stood at 7.5% in experiment [7]; 1.6% in experiment [8]; 18% in experiment [9]; 11% in experiment [10]; 23% in experiment [11]; 0.1% in experiment [12]. Besides, the ID in experiment [13] was determined as 12%; in experiment [14], 13%; in [15], 2.7%.

Take `Cn1ccc(C(=O)NCCN(CCCCN(CCNC(=O)c2ccn(C)c(=O)c2O)CCNC(=O)c2ccn(C)c(=O)c2O)CCNC(=O)c2ccn(C)c(=O)c2O)c(O)c1=O`: the ID was found to be 32% in [1]; 8.6% in experiment [2]; 25% in [3]; 47% in experiment [4]; 1.8% in [5]; 14% in experiment [6]. Also, the ID in [7] is 11%; in experiment [8], 2.1%; in experiment [9] it was 29%; in experiment [10] it was 17%; in experiment [11], 20%; in experiment [12], 1.3%. Further, the values for the ID in [13], in [14] and in experiment [15] were 13%, 1.8% and 39%, respectively.

On to `Cn1ccc(C(=O)NCCCN(CCCNC(=O)c2ccn(C)c(=O)c2O)CCCNC(=O)c2ccn(C)c(=O)c2O)c(O)c1=O`, for which the ID was 60% in experiment [1]; 36% in experiment [2]; 12% in experiment [3]; 55% in [4]; 0.7% in [5]; 17% in [6]. Further, the ID in experiment [7] stood at 14%; in experiment [8], 2%; in experiment [9], 33%; in experiment [10] it was 28%; in [11], 1.8%; in experiment [12] it was 0.7%. Further, the ID in experiment [13] worked out at 28%; in experiment [14], 4.3%; in experiment [15], 3.6%.

As to `Cn1ccc(C(=O)NCCN(CCCN(CCNC(=O)c2ccn(C)c(=O)c2O)CCNC(=O)c2ccn(C)c(=O)c2O)CCNC(=O)c2ccn(C)c(=O)c2O)c(O)c1=O`, the ID in experiment [1] was found to be 30%; in experiment [2], 22%; in experiment [3], 41%; in experiment [4], 34%; in experiment [5], 1.6%; in experiment [6] it was 10%. For the same compound, the ID in [7] came out at 9.9%; in experiment [8] it was 2.7%; in experiment [9] it was 24%; in [10], 13%; in experiment [11], 16%; in [12], 1.2%. Besides, the ID in experiment [13] was 13%; in [14] it was 3.1%; in [15], 33%.

With `Cn1ccc(C(=O)NCCCNC(=O)c2ccn(C)c(=O)c2O)c(O)c1=O`, the ID in experiment [1] was found to be 66%; in [2] it was 7.9%; in experiment [3], 41%; in experiment [4] it was 32%; in experiment [5], 0.5%; in experiment [6], 9.5%. The ID in experiment [7] came to 14%; in experiment [8], 2.6%; in experiment [9], 27%; in experiment [10] it was 33%; in experiment [11] it was 16%; in experiment [12], 0.8%. Also, the ID in experiment [13] came out at 27%; in experiment [14] it was 5%; in [15], 11%.

On to `Cn1ccc(C(=O)NCCN(CCNC(=O)c2ccn(C)c(=O)c2O)CCN(CCNC(=O)c2ccn(C)c(=O)c2O)CCNC(=O)c2ccn(C)c(=O)c2O)c(O)c1=O`, for which the ID came to 23% in [1]; 38% in [2]; 45% in experiment [3]; 36% in experiment [4]; 1.3% in [5]; 3.8% in experiment [6]. Besides, the ID in [7] was determined as 11%; in experiment [8] it was 2.8%; in [9], 19%; in experiment [10] it was 7.6%; in experiment [11], 12%; in experiment [12] it was 0.4%. Further, the values for the ID in experiment [13], in experiment [14] and in [15] were 11%, 4% and 27%, respectively.

As for `O=C(NCc1cc(CNC(=O)c2cccc(=O)n2O)cc(CNC(=O)c2cccc(=O)n2O)c1)c1cccc(=O)n1O`, the ID in [3] amounted to 43%; in experiment [4], 9.6%; in experiment [5], 1.8%; in experiment [6] it was 18%; in experiment [7], 17%; in experiment [8], 10%. In experiment [9], this compound gave an ID of 47%.

As for `Cn1ccc(C(=O)NCCN(CCNC(=O)c2ccn(C)c(=O)c2O)CCNC(=O)c2ccn(C)c(=O)c2O)c(O)c1=O`, the ID in [1] is on record as 25%; in experiment [2], 34%; in [3], 45%; in experiment [4] it was 35%; in experiment [5] it was 0.7%; in experiment [6] it was 5.5%. Further, the ID in [7] came out at 11%; in [8], 2.7%; in [9], 20%; in experiment [10], 8.5%; in experiment [11], 21%; in experiment [12], 0.7%. Further, the values for the ID in experiment [13], in [14] and in experiment [15] were 13%, 1.9% and 21%, respectively.

Turning to `CC(=O)N(O)CCCCCNC(=O)CCC(=O)N(O)CCCCCNC(=O)CCC(=O)N(O)CCCCCNC(=O)c1ccn(C)c(=O)c1O`, the ID is listed as 60% in [1]; 17% in [2]; 26% in experiment [3]; 21% in experiment [4]; 3% in [5]; 13% in experiment [6]. The ID in [7] is 17%; in [8], 19%; in experiment [9], 53%; in experiment [10], 22%; in experiment [11], 2.4%; in experiment [12], 2.4%. For the same compound, the ID in [13] was determined as 20%; in experiment [14], 15%; in experiment [15], 20%.

Consider `Cn1ccc(C(=O)NCCCCNC(=O)c2ccn(C)c(=O)c2O)c(O)c1=O`, for which the ID is on record as 55% in experiment [1]; 11% in experiment [2]; 63% in experiment [3]; 19% in [4]; 0.4% in experiment [5]; 3.7% in experiment [6]. Besides, the ID in [7] stood at 11%; in experiment [8] it was 1.9%; in experiment [9], 17%; in [10], 34%; in experiment [11] it was 26%; in experiment [12], 0.5%. Further, the figures for the ID in experiment [13], in [14] and in experiment [15] were 17%, 3.2% and 8.8%, respectively.
